Measurements from ChEMBL document CHEMBL3627608, “Crystal structures of human RIP2 kinase catalytic domain complexed with ATP-competitive inhibitors: Foundations for understanding inhibitor selectivity” (Bioorg Med Chem, 2015).

Legend:
[1] = biological target: Serine/threonine-protein kinase 38-like (Homo sapiens) (UniProt Q9Y2H1); test: Inhibition of STK38L (unknown origin) at 10 uM after 120 mins P33 radiolabeled kinase activity assay
[2] = biological target: Calcium/calmodulin-dependent protein kinase type II subunit beta (Homo sapiens) (UniProt Q13554); test: Inhibition of CAMK2beta (unknown origin) at 10 uM after 120 mins P33 radiolabeled kinase activity assay
Calcium/calmodulin-dependent protein kinase type II subunit beta (Homo sapiens), sequence (Q13554 whole entry): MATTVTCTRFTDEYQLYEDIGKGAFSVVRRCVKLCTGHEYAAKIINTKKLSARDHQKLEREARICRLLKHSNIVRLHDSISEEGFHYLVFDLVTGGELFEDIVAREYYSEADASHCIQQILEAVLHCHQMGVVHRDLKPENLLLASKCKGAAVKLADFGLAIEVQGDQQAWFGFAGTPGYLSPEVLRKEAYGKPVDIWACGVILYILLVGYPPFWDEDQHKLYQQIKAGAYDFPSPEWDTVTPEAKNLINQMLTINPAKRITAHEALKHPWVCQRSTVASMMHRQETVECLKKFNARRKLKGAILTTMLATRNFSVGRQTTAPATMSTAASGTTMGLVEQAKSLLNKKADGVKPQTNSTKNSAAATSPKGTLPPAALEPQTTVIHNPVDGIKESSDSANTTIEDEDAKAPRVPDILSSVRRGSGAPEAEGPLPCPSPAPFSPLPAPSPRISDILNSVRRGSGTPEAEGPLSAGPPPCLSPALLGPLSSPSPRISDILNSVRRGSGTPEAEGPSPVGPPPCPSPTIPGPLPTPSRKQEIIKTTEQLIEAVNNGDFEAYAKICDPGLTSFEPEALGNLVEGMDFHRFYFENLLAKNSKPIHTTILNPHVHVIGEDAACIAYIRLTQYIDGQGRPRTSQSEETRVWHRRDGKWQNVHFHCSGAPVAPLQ

[3] = biological target: Casein kinase II subunit alpha (Homo sapiens) (UniProt P68400); test: Inhibition of CK2alpha (unknown origin) at 10 uM after 120 mins P33 radiolabeled kinase activity assay
[4] = biological target: T1, Mitogen-activated protein kinase kinase kinase 2 (Homo sapiens) (UniProt Q9Y2U5); test: Inhibition of MEKK2 (unknown origin) at 10 uM after 120 mins P33 radiolabeled kinase activity assay
T1 sequence (whole entry): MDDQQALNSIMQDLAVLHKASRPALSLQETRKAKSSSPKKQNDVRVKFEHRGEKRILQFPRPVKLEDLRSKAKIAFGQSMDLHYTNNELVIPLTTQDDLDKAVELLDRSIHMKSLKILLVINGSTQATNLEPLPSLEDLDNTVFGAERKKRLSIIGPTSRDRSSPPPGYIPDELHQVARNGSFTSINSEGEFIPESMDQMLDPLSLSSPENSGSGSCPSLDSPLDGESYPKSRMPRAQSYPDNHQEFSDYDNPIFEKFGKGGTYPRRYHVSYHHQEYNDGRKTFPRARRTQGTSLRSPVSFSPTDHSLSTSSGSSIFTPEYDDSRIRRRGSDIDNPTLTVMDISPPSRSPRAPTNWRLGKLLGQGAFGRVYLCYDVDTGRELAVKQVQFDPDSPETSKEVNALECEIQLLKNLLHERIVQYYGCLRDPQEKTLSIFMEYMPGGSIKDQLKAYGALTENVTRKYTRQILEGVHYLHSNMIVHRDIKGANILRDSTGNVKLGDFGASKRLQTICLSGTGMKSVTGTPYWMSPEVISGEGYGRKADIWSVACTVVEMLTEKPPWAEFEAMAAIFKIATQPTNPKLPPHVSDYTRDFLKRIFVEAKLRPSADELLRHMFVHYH

[5] = species: Homo sapiens; test: Inhibition of PKCbeta2 (unknown origin) at 10 uM after 120 mins P33 radiolabeled kinase activity assay
[6] = biological target: Insulin-like growth factor 1 receptor (Homo sapiens) (UniProt P08069); test: Inhibition of IGF1R (unknown origin) at 10 uM after 120 mins P33 radiolabeled kinase activity assay
Insulin-like growth factor 1 receptor (Homo sapiens), sequence (P08069 31-736 limits assumed): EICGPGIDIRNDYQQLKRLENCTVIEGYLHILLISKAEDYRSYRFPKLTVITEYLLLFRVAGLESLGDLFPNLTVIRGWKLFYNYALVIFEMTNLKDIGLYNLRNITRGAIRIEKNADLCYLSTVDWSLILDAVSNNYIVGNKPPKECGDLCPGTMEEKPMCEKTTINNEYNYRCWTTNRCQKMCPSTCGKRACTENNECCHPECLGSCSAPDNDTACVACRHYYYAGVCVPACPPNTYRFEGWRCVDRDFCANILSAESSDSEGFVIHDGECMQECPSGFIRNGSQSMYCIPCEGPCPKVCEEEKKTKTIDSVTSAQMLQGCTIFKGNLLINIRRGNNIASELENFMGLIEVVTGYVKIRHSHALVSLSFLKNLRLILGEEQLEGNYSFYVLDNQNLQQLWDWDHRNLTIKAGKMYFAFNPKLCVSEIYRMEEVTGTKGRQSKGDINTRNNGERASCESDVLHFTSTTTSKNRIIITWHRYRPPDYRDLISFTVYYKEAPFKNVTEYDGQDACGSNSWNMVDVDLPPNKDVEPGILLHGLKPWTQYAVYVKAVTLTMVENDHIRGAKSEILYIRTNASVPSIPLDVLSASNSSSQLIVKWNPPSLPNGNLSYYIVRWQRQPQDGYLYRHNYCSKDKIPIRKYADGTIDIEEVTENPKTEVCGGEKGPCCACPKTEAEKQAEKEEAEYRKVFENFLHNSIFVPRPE
Insulin-like growth factor 1 receptor (Homo sapiens), sequence (P08069 741-1367 limits assumed): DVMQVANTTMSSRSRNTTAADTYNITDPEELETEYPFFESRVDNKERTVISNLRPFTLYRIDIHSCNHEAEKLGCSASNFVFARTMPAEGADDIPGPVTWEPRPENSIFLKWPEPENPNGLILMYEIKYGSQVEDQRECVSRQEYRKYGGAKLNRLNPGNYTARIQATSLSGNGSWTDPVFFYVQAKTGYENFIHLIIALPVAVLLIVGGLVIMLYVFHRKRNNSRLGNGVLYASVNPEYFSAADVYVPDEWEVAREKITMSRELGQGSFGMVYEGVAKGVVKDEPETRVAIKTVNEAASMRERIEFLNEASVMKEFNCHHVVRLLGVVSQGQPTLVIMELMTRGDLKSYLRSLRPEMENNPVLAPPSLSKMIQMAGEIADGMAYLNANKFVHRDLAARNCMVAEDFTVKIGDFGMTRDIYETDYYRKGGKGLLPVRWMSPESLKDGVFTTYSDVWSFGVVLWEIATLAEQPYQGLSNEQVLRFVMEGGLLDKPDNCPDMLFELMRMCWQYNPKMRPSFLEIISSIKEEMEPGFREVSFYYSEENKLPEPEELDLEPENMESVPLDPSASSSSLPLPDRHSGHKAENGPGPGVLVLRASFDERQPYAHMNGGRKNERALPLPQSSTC

[7] = biological target: Homeodomain-interacting protein kinase 1 (Homo sapiens) (UniProt Q86Z02); test: Inhibition of HIPK1 (unknown origin) at 10 uM after 120 mins P33 radiolabeled kinase activity assay
Homeodomain-interacting protein kinase 1 (Homo sapiens), sequence (Q86Z02 whole entry, looked up): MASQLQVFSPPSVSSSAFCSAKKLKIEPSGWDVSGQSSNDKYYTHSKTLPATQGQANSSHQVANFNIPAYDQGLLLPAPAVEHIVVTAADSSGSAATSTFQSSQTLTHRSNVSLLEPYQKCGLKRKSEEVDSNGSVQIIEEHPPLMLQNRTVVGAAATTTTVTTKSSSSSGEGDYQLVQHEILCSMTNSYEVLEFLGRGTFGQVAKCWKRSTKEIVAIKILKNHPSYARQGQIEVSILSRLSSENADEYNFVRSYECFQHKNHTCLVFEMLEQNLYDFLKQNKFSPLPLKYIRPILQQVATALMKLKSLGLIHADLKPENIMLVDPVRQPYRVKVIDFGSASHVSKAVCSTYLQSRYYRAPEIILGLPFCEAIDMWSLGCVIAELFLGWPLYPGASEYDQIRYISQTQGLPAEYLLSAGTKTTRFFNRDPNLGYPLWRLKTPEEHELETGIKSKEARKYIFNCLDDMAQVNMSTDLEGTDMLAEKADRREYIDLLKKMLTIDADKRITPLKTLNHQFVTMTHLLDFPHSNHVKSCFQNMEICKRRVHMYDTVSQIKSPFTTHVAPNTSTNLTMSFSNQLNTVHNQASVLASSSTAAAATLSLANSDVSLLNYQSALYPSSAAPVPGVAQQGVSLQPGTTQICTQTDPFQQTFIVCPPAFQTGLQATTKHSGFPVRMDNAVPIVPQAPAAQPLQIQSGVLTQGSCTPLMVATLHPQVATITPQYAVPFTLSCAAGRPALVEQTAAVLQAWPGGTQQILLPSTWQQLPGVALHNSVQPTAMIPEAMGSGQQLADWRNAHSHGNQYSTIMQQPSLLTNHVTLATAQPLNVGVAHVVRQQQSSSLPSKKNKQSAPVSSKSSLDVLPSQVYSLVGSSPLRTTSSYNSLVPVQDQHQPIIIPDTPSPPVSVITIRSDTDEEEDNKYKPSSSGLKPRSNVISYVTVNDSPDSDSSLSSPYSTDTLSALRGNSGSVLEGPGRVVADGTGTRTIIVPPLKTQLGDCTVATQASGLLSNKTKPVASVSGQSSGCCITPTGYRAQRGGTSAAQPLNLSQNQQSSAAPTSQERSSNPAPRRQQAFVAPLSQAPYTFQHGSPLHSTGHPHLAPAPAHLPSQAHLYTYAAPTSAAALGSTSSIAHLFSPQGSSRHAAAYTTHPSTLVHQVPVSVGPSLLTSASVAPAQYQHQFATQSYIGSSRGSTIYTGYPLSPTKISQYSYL

[8] = biological target: T2, Serine/threonine-protein kinase VRK1 (Homo sapiens) (UniProt Q99986); test: Inhibition of VRK1 (unknown origin) at 10 uM after 120 mins P33 radiolabeled kinase activity assay
T2 sequence (whole entry): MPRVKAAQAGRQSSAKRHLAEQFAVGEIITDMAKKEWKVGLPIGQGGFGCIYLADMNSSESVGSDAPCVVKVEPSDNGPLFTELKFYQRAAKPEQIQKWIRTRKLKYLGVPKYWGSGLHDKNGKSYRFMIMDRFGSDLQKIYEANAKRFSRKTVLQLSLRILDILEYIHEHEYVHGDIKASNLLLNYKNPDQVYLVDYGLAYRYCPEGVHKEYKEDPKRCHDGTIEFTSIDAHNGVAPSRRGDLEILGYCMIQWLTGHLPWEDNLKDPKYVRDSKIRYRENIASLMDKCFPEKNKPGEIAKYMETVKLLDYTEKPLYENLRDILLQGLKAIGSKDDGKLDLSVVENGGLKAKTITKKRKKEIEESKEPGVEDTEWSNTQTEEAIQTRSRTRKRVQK

[9] = biological target: T3, Serine/threonine-protein kinase D3 (Homo sapiens) (UniProt O94806); test: Inhibition of PKCnu (unknown origin) at 10 uM after 120 mins P33 radiolabeled kinase activity assay
T3 sequence (whole entry): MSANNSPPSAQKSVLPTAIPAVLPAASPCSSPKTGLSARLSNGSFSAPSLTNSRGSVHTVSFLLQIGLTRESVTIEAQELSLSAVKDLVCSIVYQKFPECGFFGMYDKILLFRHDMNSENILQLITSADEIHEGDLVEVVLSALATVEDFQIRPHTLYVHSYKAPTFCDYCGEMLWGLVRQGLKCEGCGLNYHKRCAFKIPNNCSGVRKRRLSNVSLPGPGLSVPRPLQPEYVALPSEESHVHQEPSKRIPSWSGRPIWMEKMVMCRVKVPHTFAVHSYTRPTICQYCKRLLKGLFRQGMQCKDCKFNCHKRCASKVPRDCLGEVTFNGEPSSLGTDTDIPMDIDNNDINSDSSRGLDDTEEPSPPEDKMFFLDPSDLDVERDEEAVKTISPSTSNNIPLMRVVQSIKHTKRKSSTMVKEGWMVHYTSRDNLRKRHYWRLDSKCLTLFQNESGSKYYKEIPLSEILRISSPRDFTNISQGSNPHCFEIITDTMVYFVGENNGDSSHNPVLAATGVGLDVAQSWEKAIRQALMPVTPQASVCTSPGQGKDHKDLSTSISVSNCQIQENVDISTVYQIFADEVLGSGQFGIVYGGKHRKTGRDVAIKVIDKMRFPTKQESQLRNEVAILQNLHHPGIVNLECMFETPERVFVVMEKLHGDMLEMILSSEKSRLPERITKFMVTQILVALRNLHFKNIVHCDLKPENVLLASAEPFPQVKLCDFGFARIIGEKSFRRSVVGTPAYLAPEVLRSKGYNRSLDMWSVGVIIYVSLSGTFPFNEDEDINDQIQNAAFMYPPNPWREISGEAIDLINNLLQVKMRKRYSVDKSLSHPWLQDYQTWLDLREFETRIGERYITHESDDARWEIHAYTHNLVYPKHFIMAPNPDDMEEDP

[10] = biological target: STE20-like serine/threonine-protein kinase (Homo sapiens) (UniProt Q9H2G2); test: Inhibition of SLK (unknown origin) at 10 uM after 120 mins P33 radiolabeled kinase activity assay
[11] = biological target: Serine/threonine-protein kinase NIM1 (Homo sapiens) (UniProt Q8IY84); test: Inhibition of NIM1 (unknown origin) at 10 uM after 120 mins P33 radiolabeled kinase activity assay
Serine/threonine-protein kinase NIM1 (Homo sapiens), sequence (Q8IY84 whole entry): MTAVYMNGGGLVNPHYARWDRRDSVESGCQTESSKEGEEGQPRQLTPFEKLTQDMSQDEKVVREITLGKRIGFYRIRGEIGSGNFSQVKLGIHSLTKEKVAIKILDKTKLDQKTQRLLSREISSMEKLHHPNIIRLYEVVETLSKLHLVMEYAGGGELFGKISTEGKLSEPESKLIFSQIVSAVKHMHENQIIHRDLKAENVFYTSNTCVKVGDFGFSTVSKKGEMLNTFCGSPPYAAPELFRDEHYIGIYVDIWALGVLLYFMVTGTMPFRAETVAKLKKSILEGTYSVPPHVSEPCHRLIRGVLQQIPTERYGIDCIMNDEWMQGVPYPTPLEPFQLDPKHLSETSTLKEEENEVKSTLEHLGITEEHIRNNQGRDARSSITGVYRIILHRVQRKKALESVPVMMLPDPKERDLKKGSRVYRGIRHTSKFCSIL

[12] = biological target: Serine/threonine-protein kinase WNK3 (Homo sapiens) (UniProt Q9BYP7); test: Inhibition of WNK3 (unknown origin) at 10 uM after 120 mins P33 radiolabeled kinase activity assay
[13] = biological target: Ribosomal protein S6 kinase alpha-3 (Homo sapiens) (UniProt P51812); test: Inhibition of RSK2 (unknown origin) at 10 uM after 120 mins P33 radiolabeled kinase activity assay
[14] = biological target: Myosin light chain kinase 2, skeletal/cardiac muscle (Homo sapiens) (UniProt Q9H1R3); test: Inhibition of MLCK2 (unknown origin) at 10 uM after 120 mins P33 radiolabeled kinase activity assay
Myosin light chain kinase 2, skeletal/cardiac muscle (Homo sapiens), sequence (Q9H1R3 whole entry): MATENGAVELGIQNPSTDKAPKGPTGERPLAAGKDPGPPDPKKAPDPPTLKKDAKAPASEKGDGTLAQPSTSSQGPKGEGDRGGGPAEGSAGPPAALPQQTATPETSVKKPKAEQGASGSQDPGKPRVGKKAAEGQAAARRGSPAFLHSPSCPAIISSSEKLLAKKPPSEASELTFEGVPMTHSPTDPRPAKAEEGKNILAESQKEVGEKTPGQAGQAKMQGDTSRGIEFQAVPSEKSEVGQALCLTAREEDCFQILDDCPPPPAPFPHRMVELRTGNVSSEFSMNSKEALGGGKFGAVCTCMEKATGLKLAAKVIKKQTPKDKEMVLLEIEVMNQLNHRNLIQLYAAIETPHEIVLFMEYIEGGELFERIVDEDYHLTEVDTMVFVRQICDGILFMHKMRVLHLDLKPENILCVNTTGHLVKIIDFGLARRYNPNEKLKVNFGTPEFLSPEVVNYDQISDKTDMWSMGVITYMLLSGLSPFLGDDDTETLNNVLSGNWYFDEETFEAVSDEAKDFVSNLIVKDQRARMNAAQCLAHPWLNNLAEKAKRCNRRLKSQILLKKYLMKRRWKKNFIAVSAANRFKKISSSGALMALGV

[15] = biological target: Cyclin-dependent kinase 7/ cyclin H (Homo sapiens) (UniProt P51946+P50613); test: Inhibition of CDK7/cyclin H (unknown origin) at 10 uM after 120 mins P33 radiolabeled kinase activity assay; assay type: protein-complex assay

Serine/threonine-protein kinase 38-like (Homo sapiens), sequence (Q9Y2H1 2-464 limits assumed): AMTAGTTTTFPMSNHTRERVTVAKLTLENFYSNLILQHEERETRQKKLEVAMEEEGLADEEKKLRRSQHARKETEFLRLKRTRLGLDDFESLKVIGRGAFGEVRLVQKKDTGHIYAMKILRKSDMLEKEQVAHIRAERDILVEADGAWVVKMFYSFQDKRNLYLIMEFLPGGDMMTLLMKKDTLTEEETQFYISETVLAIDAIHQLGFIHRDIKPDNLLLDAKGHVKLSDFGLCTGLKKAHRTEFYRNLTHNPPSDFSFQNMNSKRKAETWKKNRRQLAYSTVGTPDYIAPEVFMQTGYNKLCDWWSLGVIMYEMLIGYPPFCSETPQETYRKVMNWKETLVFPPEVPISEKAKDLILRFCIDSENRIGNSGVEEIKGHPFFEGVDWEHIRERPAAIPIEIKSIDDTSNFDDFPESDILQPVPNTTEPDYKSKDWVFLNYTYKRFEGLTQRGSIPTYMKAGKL

Row | inhibition [1] | inhibition [2] | inhibition [3] | inhibition [4] | inhibition [5] | inhibition [6] | inhibition [7] | inhibition [8] | inhibition [9] | inhibition [10] | inhibition [11] | inhibition [12] | inhibition [13] | inhibition [14] | inhibition [15] | Compound
1 | 22.4% | 8.74% | 19.7% | 55% | 9.1% | 9.14% | 81.1% | 15.4% | 99.9% | 86% | 5.74% | 25.9% | 66.8% | 30.2% | 16.1% | CS(=O)(=O)c1cccc(Nc2nccc(-c3sc(N4CCOCC4)nc3-c3cccc(NS(=O)(=O)c4c(F)cccc4F)c3)n2)c1
2 | 7.36% | 7.54% | 8.6% | 16.7% | 31.5% | 2.21% | -8.42% | 3.79% | 9.76% | 31.2% | 3.72% | -2.44% | 5.36% | 12.1% | 2.11% | COCCNC(=O)c1ccc2c(c1)nc(-c1cnc(-c3ccc(Cl)cc3)[nH]1)n2CCOC
3 | 33.7% | 13.5% | 20% | 23.3% | 9.88% | 2.82% | 8.52% | 14% | 11.4% | 73% | 4.76% | 1.93% | 46.3% | 53.2% | 0.59% | CC(C)(C)c1cc(NC(=O)Nc2ccc(Oc3ccncc3)cc2)no1
